Results on four molecules are retold here after patent US20150265642A1, “NAD BIOSYNTHESIS AND PRECURSORS IN THE PREVENTION AND TREATMENT OF INFLAMMATION” (PRESIDENT AND FELLOWS OF HARVARD COLLEGE, priority 2013, published 2015).

One test relates to primary myoblasts. Kind of test: NAD+/NADH ratio and HIF-1α immunoblot in primary WT myoblasts treated with pyruvate or lactate. As to conditions: 10 mM lactate, 24 h. It counts as cell-based, mice. The text has this: FIG. 21 provides additional data related to the content of FIG. 14. FIG. 21A depicts HIF-1α target genes (PGK-1, Glut1, PDK1 and Vegfa) expression in gastrocnemius of WT and SIRT1 KO mice. Relative expression values were normalized to WT mice (n=5). FIG. 21B depicts hypoxia response element activity in primary myoblasts isolated from WT and SIRT1 KO mice and treated with or without DMOG. Relative luciferase activity was normalized to WT cells (n=6, *p<0.05 versus WT). FIG. 21C depicts a representative immunoblot of HIF-1α and Tubulin in PGC-1α/β KO myotubes treated with adenovirus overexpressing SIRT1 or empty vector as well as treatment with DMSO or with HIF stabilizing compound DMOG. FIG. 21D depicts NAD+/NADH ration measured in primary WT myoblasts treated with either 10 mM pyruvate, 10 mM lactate or vehicle for 24 h (n=4). […] FIG. 21J depicts mitochondrial DNA content analyzed by qPCR in control, HIF-1α DPA or HIF-2α DPA C2C12 cells treated with adenovirus overexpressing SIRT1 or empty vector. […] FIG. 21K depicts ARNT mRNA analyzed by qPCR in C2C12 cells infected with ARNT or nontargeting shRNA. […] FIG. 21L depicts mitochondrial DNA content analyzed by qPCR in C2C12 cells infected with ARNT or nontargeting shRNA. […] FIG. 21M depicts ND1, Cytb, COX1 and ATP6 mRNA analyzed by qPCR in C2C12 cells infected with ARNT or nontargeting shRNA. […] Values are expressed as mean±SEM. […]
On the technique in general: Immunoblotting shows a protein as a band on a membrane.

The test system of another test is PGC-1α/β KO myotubes. Put plainly: Gene expression (qPCR) and HIF-1α immunoblot in PGC-1α/β KO myotubes. The settings on record: for effect on induction of mitochondrial ETC genes by SIRT1 overexpression: PGC-1α/β knockout myocytes/myotubes; for effect on induction of mitochondrial ETC genes by SIRT1 overexpression / effect on NMN-induced expression of mitochondrially-encoded ETC genes: 1 mM DMOG or 10 μM DFO, 12 hours; for effect on NMN-induced expression of mitochondrially-encoded ETC genes: primary PGC-1α/β KO myotubes; for nuclear- and mitochondrial-encoded genes: EX-527 48 h. It counts as cell-based, mice. As for the experimental part:
Primary myoblasts cells were isolated from WT, SIRT1 KO (Price et al., 2012) and PGC-1α/β KO (Zechner et al., 2010) mice as previously described (Price et al., 2012). WT and PGC-1α/β KO primary myoblasts were plated and allowed to differentiate into myotubes by replacing the media with low glucose DMEM supplemented with 2% horse serum (Sigma-Aldrich) for 4 days. After the differentiation the cells were infected with empty vector or flag-SIRT1 adenovirus as described before (Gerhart-Hines et al., 2007). Media was replaced with fresh DMEM supplemented with 2% horse serum (Sigma-Aldrich) for an additional 48 hr and, after that the cells were harvested for the different assays as described. To investigate the role of HIF-1α in genome asynchrony, PGC-1α/β KO primary myotubes were treated for 12 hours with 1 mM DMOG (Sigma) or 10 μM DFO (Sigma), 24 h after infection with empty vector of flag-SIRT1 adenovirus or after 12 h treatment with […] NMN (Sigma).
(§1) RNA from skeletal muscle tissue and C2C12 cells were extracted with RNeasy mini kit (Qiagen) according to the instructions and quantified using the NanoDrop 1000 spectrophotometer (Thermo Scientific). cDNA was synthesized with the iSCRIP cDNA synthesis kit (BioRad) using 600 ng of RNA. Quantitative RT-PCR reactions were performed using 1 μM of primers and LightCycler® 480 SYBR Green Master (Roche) on an LightCycler® 480 detection system (Roche). Calculations were performed by a comparative method (2-ΔCT) using 18S as an internal control. For mtDNA analysis, total DNA was extracted with DNeasy blood and tissue kit (Qiagen). mtDNA was amplified using primers specific for the mitochondrial cytochrome c oxidase subunit 2 (COX2) gene and normalized to genomic DNA by amplification of the ribosomal protein s18 (rps18) nuclear gene. Primers were designed using the IDT software (IDT) and the primer sequences can be found in Table 1.
(§2) Protein extracts from tissue or C2C12 cells were obtained by lysis in ice-cold lysis buffer (150 mM NaCl, 10 mM Tris HCl (pH 7.4), 1 mM EDTA, 1 mM EGTA, 1% Triton X-100, 0.5% NP-40) supplemented with a cocktail of protease and phosphatase inhibitors (Roche). Protein content was determined by the Bradford protein assay (Biorad), and 50 μg proteins were run on SDS-PAGE under reducing conditions. The separated proteins were then electrophoretically transferred to a polyvinylidene difluoride membrane (Perkin-Elmer). […] The immunostaining was detected using horseradish peroxidase-conjugated anti-rabbit or anti-mouse immunoglobulin for 1 h at room temperature.
On the technique in general: In qPCR the cycle at which signal appears reflects the starting amount.

The subject of a further test is C2C12 myoblasts. Put plainly: mtDNA content and ETC gene expression in C2C12 myoblasts. It counts as cell-based. The protocol: C2C12 cell line (ATCC) was cultured in low glucose Dulbecco's modified eagle medium (DMEM) (Invitrogen) supplemented with 10% FBS (Invitrogen) and a mix of antibiotic and antimycotic (Invitrogen). To inhibit SIRT1, cells were treated the vehicle (0.001% DMSO) or 10 μM EX-527 (Tocris) for 12 h. C2C12 myoblasts were infected with an empty or SIRT1 adenovirus as described before (Gerhart-Hines et al., 2007) and the media was replaced with fresh DMEM for additional 48 h, after that the cells were treated as described before. To test the effects of hypoxia and HIFα stabilization in genome asyncrony, C2C12 myoblasts were exposed to 1% oxygen for 16 h or treated with the vehicle (0.001% DMSO) or DMOG (Cayman) for the same period of time.
as §1

In test [1] the test system is inflammation related markers (TNFa, IL-6, IL-18). Kind of test: qPCR of inflammation related markers in gastrocnemius. The settings on record: 6-month-old mice, DMOG IP 300 mg/kg/day, 5 days. It counts as in vivo, C57BL/6J mice. As for the experimental part: C57BL/6J mice of 3, 6, 22, or 24 months of age were obtained from the National Institutes of Aging mouse aging colony. Mice were acclimated for at least one-week prior to sacrifice. 3, 6, 22 and 24-month-old mice were given interperitoneal (IP) injections of 500 mg NMN/kg body weight per day or the equivalent volume of PBS for 7 consecutive days at 5:00 pm and 7:00 am on day 8 and sacrificed 4 hr after last injection. All animal studies followed the guidelines of and were approved by the Harvard Institutional Animal Care and Use Committee
C57BL/6J mice of 6 months of age were given interperitoneal (IP) injections of 300 mg DMOG/kg body weight per day or the equivalent volume of PBS for 5 consecutive days. All animal studies followed the guidelines of and were approved by the Harvard Institutional Animal Care and Use Committee
RNA from skeletal muscle and aorta were extracted with RNeasy mini kit (Qiagen) according to the instructions and quantified using the NanoDrop 1000 spectrophotometer (Thermo Scientific). cDNA was synthesized with the iSCRIP cDNA synthesis kit (BioRad) using 600 ng of RNA. Quantitative RT-PCR reactions were performed using 1 μM of primers and LightCycler® 480 SYBR Green Master (Roche) on an LightCycler® 480 detection system (Roche). Calculations were performed by a comparative method (2-ΔCT) using 18S as an internal control. […]

In another test the test system is TFAM promoter. Kind of test: TFAM promoter activity (luciferase assay) in primary WT myoblasts. It counts as cell-based, mouse. The protocol: TFAM promoter, VHL promoter, HRE and c-Myc activity were determined using a luciferase-based system. Luciferase activity was measured using the Dual-Luciferase Reporter Assay System (Promega) with Renilla as the reference.
TFAM promoter activity was evaluated using a TFAM promotes-luc plasmid. A fragment of the mouse Tfam promoter (1.4 kb upstream of the coding sequence) was cloned into a pGL4.15 vector (Promega). Luciferase activity was measured using the Dual-Luciferase Reporter Assay System (Promega) with Renilla as the reference 48 h after transfection.

The next test deals with HIF-1α. Put plainly: DMOG treatment of SIRT1-tg mice (HIF-1α immunoblot, qPCR, ATP content in gastrocnemius). It counts as in vivo. The settings on record: DMOG IP 300 mg/kg/day, 5 days. The protocol:
Whole body SIRT1 overexpressor (SIRT1-tg) mice of 6 months of age were given interperitoneal (IP) injections of 300 mg DMOG/kg body weight per day or the equivalent volume of PBS for 5 consecutive days.
ATP content was measured with a commercial kit according to the manufacturer's instructions (Roche).
as §1, §2

Where [2] appears, read: C2C12 myoblasts treated with DMOG, 16 h.

For `CC(O)C(=O)O` (centres unmarked) [lactate], in the test on primary myoblasts, the HIF-1α protein entry is “induces HIF-1α protein stabilization” and the “NAD+/NADH ratio” value is given as “decreasing”.

On to `COC(=O)CNC(=O)C(=O)OC` [DMOG, dimethyloxaloylglycine], for which the “effect on NAD (pyruvate) mediated increases in mitochondrial-encoded genes” value in the test on PGC-1α/β KO myotubes (PGC-1α/β KO cells, pyruvate in the presence of DMOG) was “can be inhibited”. Further, the HIF-1α protein entry in the test on PGC-1α/β KO myotubes (PGC-1α/β KO myotubes, DMOG (FIG. 21C)) is recorded as “stabilizes HIF-1α protein”. Further, in the test on PGC-1α/β KO myotubes, the “effect on induction of mitochondrial ETC genes by SIRT1 overexpression” value is “completely blocked” and the “effect on NMN-induced expression of mitochondrially-encoded ETC genes” value is “completely abolished”. Also, in the test on PGC-1α/β KO myotubes (PGC-1α/β knockout myotubes, DMOG compared to vehicle control), the “expression of mitochondrial-encoded genes” value was “induced a decline”. In addition, in the test with C2C12 myoblasts (setting [2]), the “expression of mitochondrially-encoded ETC genes” value is “specific decline” and the mtDNA content result is on record as “specific decline”. Moreover, the “inflammation related markers (TNFalpha, IL-6, Il-1b and IL-18) in the skeletal muscle” value in test [1] is reported as “induces inflammatory markers in the skeletal muscle”. The “full length TFAM promoter activity” value with TFAM promoter (DMOG vs vehicle (DMSO)) is given as “reduces the full length TFAM promoter activity”. Besides, in the test with TFAM promoter (DMOG, absence of the c-Myc binding site), the “TFAM promoter activity with c-Myc consensus sequence mutation” value is “does not have an additive effect”. In addition, in the test with HIF-1α, the HIF-1α protein entry is listed as “increase HIF-1α”, the “increase in ATP levels observed in SIRT1-tg mice” value is given as “abolished” and the “increase in the expression of mitochondrial-encoded genes observed in SIRT1-tg mice” value is listed as “abolished the increase”.

For `NC(=O)C1CCCc2c1[nH]c1ccc(Cl)cc21` (centres unmarked) [EX-527], the “nuclear- and mitochondrial-encoded genes” value is “only the mitochondrial-encoded genes decreased” in the test with PGC-1α/β KO myotubes (PGC-1α/β KO myotubes reconstituted with PGC-1α T177A/S538A mutant); “decreased both nuclear- and mitochondrial-encoded genes” in the test with PGC-1α/β KO myotubes (PGC-1α/β KO myotubes reconstituted with WT PGC-1α). Moreover, in the test with C2C12 myoblasts (C2C12 cells, 10 μM EX-527, 12 h), the genome asynchrony result is “induced”.

For `CC(=O)N(O)CCCCCNC(=O)CCC(=O)N(O)CCCCCNC(=O)CCC(=O)N(O)CCCCCN` [DFO, desferrioxamine], in the test with PGC-1α/β KO myotubes, the “effect on induction of mitochondrial ETC genes by SIRT1 overexpression” value was “completely blocked” and the “effect on NMN-induced expression of mitochondrially-encoded ETC genes” value is recorded as “completely abolished”.
